# Where two headings read alike, the source gives them in different places.
# Experiments:
# C. jejuni 81–176 = assay: Minimum inhibitory concentration (MIC), two-fold serial dilution, OD600 end point; format: cell-based; conditions: Campylobacter jejuni, 24 h, read-out: C. jejuni MIC (minimum inhibitory concentration)
# Description: A primary screen was conducted using the highly invasive C. jejuni strain 81–176 originally isolated from a diarrheic patient (Korlath et al., [1985]). The C. jejuni strains were routinely grown on Mueller-Hinton (MH; Becton Dickinson and Company, MD) agar under microaerobic conditions (85% N2, 10% CO2, and 5% O2) in a DG250 Microaerophilic Workstation (Microbiology International, MD) for 18 h, washed with MH broth and adjusted to a final OD600 of 0.1 in MH broth. One hundred micro liter of culture was transferred to 96-well plates and 1 μL (200 μM/μL) of library compounds and controls were added using a pin tool (Wallace et al., [2011]). Growth controls including DMSO (1% final concentration), kanamycin (50 μg), and chloramphenicol (20 μg) were added to duplicate wells along with 100 μL un-inoculated MH broth as sterility control. The final concentration was 200 μM for each small molecule. Prior to growth, an aluminum foil was applied (to avoid drug degradation) and plates were then incubated at 42°C, under microaerobic conditions for 24 h. The end-point OD600 was measured in a Sunrise TM Tecan plate reader (Tecan Group Ltd. San Jose, CA). We initially tried to exploit the automatic kinetic OD reader option of the Sunrise TM Tecan system but were un-successful. Maintenance of the microaerophilic growth conditions required by C. jejuni was difficult in the Tecan reader which is ideally suited for aerobic bacteria. Therefore, we used an end point assay. The quality of high-throughput screen (HTS) was evaluated by calculating the Z′-factor as described previously (Zhang et al., [1999]). Z′-factor is defined as 1−((3σp + 3σn)/|μp − μn|)) where “σp” and “σn” are the standard deviations of the positive (culture+ DMSO) and negative (culture+antibiotics) controls, respectively and “μp” and “μn” are the means of the positive and negative controls, respectively. A Z′-factor >0.5 indicates a robust assay (Zhang et al., [1999]).
# The percentage of C. jejuni growth inhibition was calculated as mentioned previously (De La Fuente et al., [2006]) using the following formula: percentage of inhibition = 100 × (OD negative control–OD test compound)/(OD negative control–OD positive control). Compounds that inhibited Campylobacter growth ≥ 99.0% were selected as primary hits. The culture in wells with ≥ 99% growth inhibition were streaked onto fresh MH agar, as were the sterility, antibiotic and no compound control wells. Bacterial growth was measured on the plate after 48 h at 42°C. Based on the recovery of C. jejuni on MH agar plates, the compound was classified as either “bacteriostatic” or “bactericidal.”
# The dose-dependent effect of 35 compounds against the highly pathogenic C. jejuni 81–176 strain was tested. Compounds were two-fold serially diluted (200 to 12.5 μM). One hundred micro liter of the OD600 0.1 adjusted C. jejuni culture was pipetted in to each well of a 96 well plate, treated with 1 μL of diluted compound and the plate was incubated at 42°C under microaerobic conditions for 24 h. Growth inhibition was assessed as above.
# The minimal concentrations of compounds that inhibit the growth of C. jejuni were tested by two-fold serial dilution of each of compound in media as well as in DMSO. The results were reproducible irrespective of diluent used; however, a few compounds precipitated when media was used as a diluent. A recent study also described the in-solubility issues with a few small molecule compounds when dissolved in media for MIC determination (Selin et al., [2015]). […] Among the 21 compounds, 16 were effective at 50 μM, 7 were effective at 25 μM, and 4 were effective at 12.5 μM. We selected top-12 bactericidal compounds with MICs varying from 100 to 12.5 μM concentration for further downstream study.
# Hemolytic activity = format: cell-based; conditions: 10% sheep RBCs, 37°C
# Description: The hemolytic activity of the top-12 compounds were determined as previously described (Strom et al., [2003]; Selin et al., [2015]). Briefly, 500 μL of sheep red blood cells (LAMPIRE Biological Laboratories, Pipersville, PA) were washed three times in PBS and resuspended in 5 mL of PBS to prepare a working concentration of 10% RBCs. Two hundred micro liter of the 10% RBCs suspension was incubated with 200 μM concentrations of compounds for 1 h at 37°C in a 96 well plate. After incubation, the plate was centrifuged (4000 rpm, 5 min) and placed on ice for few min. Supernatants from each well was transferred to a fresh 96 well plate and OD of 540 nm was measured. The PBS and 0.1% Triton X-100 were used as negative and positive controls, respectively. A range of 1–10% DMSO was also used as a control. A percent hemolysis was calculated using the following formula:
# % Hemolysis=(OD of compound−OD of DMSO/ OD of Triton-X100)×100
# Two independent experiments in triplicate were performed and results were expressed as the % average hemolysis.
# [1] = tested on: C. jejuni 81-176 in Caco-2 cells; assay: Intracellular survival / in vitro clearance of C. jejuni in infected Caco-2 cells; format: cell-based, Campylobacter jejuni; conditions: for minimal effective concentration: Campylobacter jejuni, C. jejuni 81–176 infected Caco-2 cells, compounds at 200, 100, 50, 25 μM for 24 h, read-out: In vitro Concentration (in vitro clearance ability); for Intracellular Campylobacter load (below detection limit): 50 μM, 24 h
# Description: To test the effect of selected compounds on C. jejuni in vitro clearance, Caco-2 cells were infected with C. jejuni 81-176 strain and a 96 well intracellular survival assay was performed as described previously (Malde et al., [2014]; Pina-Mimbela et al., [2015]). Briefly, a mid-log phase C. jejuni 81–176 culture was pelleted by centrifuging at 9500 × g for 10 min and washed three times with Dulbecco Phosphate Buffer Saline (DPBS, Gibco) containing 1% (v/v) FBS and adjusted to the desired OD600. Approximately 1.4 × 10^5 Caco-2 cells/well were seeded in 100 μL of media containing varying concentration of compounds into each well of a 96 well plate and subsequently infected with C. jejuni at multiplicity of infection (MOI) 100 in duplicate wells. To determine clearance, Caco-2 cells were incubated with bacteria for 3 h and treated with gentamicin (150 μg/mL) and incubated for additional 2 h. Cells were washed three times with DPBS with no calcium or magnesium and incubated with 1 μL of diluted compounds (200, 100, 50, and 25 μM) for 24 h. Infected cells were washed twice with MEM, lysed with 0.1% (v/v) Triton-X 100. Subsequently, 100 μL of an aliquot from each well was 10-fold serially diluted in MEM and plated on MH agar in duplicate to determine CFUs. The appropriate controls included; (i) infected Caco-2 cell treated with kanamycin or chloramphenicol, (ii) infected Caco-2 cells treated with 1 μL of 100% Trition-X, (iii) infected Caco-2 treated with 1 μL of 100% DMSO. Two independent experiments were carried with duplicate treatments in each experiment and the average CFU value was used to plot the graph.
# The in vitro clearance ability and cytotoxicity of compounds were analyzed using one-way analysis of variance with mean separation by a least significant difference test at 5% level of significance in GraphPad Prism version 6 software.
# [2] = C. jejuni 81–176, 42°C microaerobic, dilution 200 to 12.5 μM
# [3] = sheep red blood cells (10% suspension)
Compound,MIC (C. jejuni 81–176; [2]),"hemolysis at 1 h, 200 µM (Hemolytic activity; [3])",minimal effective concentration [1],MIC (C. jejuni 81–176),"hemolysis at 1 h, 200 µM (Hemolytic activity)",Intracellular Campylobacter clearing ability ([1]; 25 μM (eight-fold dilution)),Intracellular Campylobacter load (below detection limit) [1],"Intracellular C. jejuni clearance (in vitro effect) ([1]; infected Caco-2 cells, overall)"
O=S(=O)(Nc1cccc(C(F)(F)F)c1)c1ccc(Br)cc1 [Comp 1],50 µM,7.4%,200 µM,,,,,
COc1ccc(CN2CCN(c3ccc(F)cc3)CC2)cc1C [Comp 2],,,,100 µM,0%,,,
CN(C)c1ccc(CN2CCN(c3ccccc3Cl)CC2)cc1 [Comp 3],,,,12.5 µM,0%,,,
Clc1ccc(N2CCN(Cc3ccsc3)CC2)cc1 [Comp 4],50 µM,0%,> 200 µM,,,,,
Cc1ccc(N2CCN(C/C=C/c3ccccc3)CC2)cc1 [Comp 5],50 µM,0%,> 200 µM,,,,,
O=c1c(Cl)c(Cl)cnn1-c1ccccc1Cl [Comp 7],12.5 µM,0%,25 µM,,,complete intracellular Campylobacter clearing ability,≤ 10 bacteria/mL,
Cc1c(C(C)NCc2cccc(OC3CCCC3)c2)cnn1-c1ccccc1 (centres unmarked) [Comp 10],50 µM,0%,50 µM,,,,≤ 10 bacteria/mL,
COc1ccc(CNCc2ccc(Cl)s2)cc1OCC(O)CN1CCCC1 (centres unmarked) [Comp 12],100 µM,0%,100 µM,,,,,
CN(Cc1cccc2cnccc12)CC1CCCN(CCc2ccc(F)cc2)C1 (centres unmarked) [Comp 13],12.5 µM,0%,> 200 µM,,,,,lacked in vitro effect
CN(CC(O)COc1ccccc1CNC1(c2ccccc2)CC1)C1CCCCC1 (centres unmarked) [Comp 17],12.5 µM,0%,> 200 µM,,,,,
CN(Cc1ccccc1)CC1CCCN(CCc2ccc(F)cc2)C1 (centres unmarked) [Comp 18],25 µM,0%,100 µM,,,,,
CC(=O)Nc1ccc(CN(C)CC2CCCN(CCc3cccc(C(F)(F)F)c3)C2)cc1 (centres unmarked) [Comp 22],12.5 µM,0%,100 µM,,,,,

# Source: article PMC4821856, “Novel Anti-Campylobacter Compounds Identified Using High Throughput Screening of a Pre-selected Enriched Small Molecules Library” (Frontiers in Microbiology, 2016)
